Columns and labels:
[1] = test system: mouse bone marrow-derived macrophages (BMDMs); assay: Polarization of mouse BMDMs / tumor cell-educated macrophages (flow cytometry, RNA-seq, morphology); format: cell-based
Procedure: Mouse macrophages and dendritic cells (DCs) were derived from the bone marrow (BM) of FVB/NJ mice by modifying protocols described in (Weischenfeldt J, Porse B. CSH Protoc 2008; Guo X, et al. J Immunol Methods 2016; 432:24-9). For generation of BM-derived macrophages (BMDMs), BM cells were seeded on ultra-low attachment plates (Corning) or petri dishes (Falcon) and cultured in DMEM supplemented with 10 ng/ml M-CSF (BioLegend, #576404), 10% FBS and 100 μg/mL penicillin-streptomycin. Fresh DMEM with 10 ng/ml M-CSF was added after 3 days, and cells were incubated for another 4 days before harvesting adherent cells (BMDMs). For DC differentiation, BM cells were seeded on tissue culture dishes (Corning) and cultured in RPMI 1640 supplemented with 20 ng/mL GM-CSF (Stem Cell Technologies, #78017), 10% FBS and 100 μg/mL penicillin-streptomycin. Fresh RPMI 1640 with 20 ng/mL GM13 CSF was added after 3 days, and non-adherent cells (DCs) were harvested after another 4 days. For preparation of tumor cell-conditioned media (CM), tumor cells were grown to 60% of confluence, washed twice with PBS, and then incubated with fresh DMEM for two days. CM were then harvested and centrifuged to collect the supernatant.
For flow cytometry analyses of tumor and TDLN samples, single-cell suspensions were obtained as described above (Tissue Digestion). Cells were stained in cold FACS buffer (PBS containing 0.2% BSA and 5 mM EDTA) with LIVE/DEAD Fixable Aqua Dead Cell Stain (Thermo Fisher) for 30 min on ice, followed by blocking with anti-CD16/32 (BioLegend) for 20 min on ice. Cells were then incubated in FACS buffer for 30 min on ice with antibodies specific to CD45 (clone 30-F11, BioLegend), TCR β chain (clone H57-597, BioLegend), CD38 (clone 145-2C11, BioLegend), CD4 (clone RM4-5, BioLegend), CD8a (clone 53-6.7, BioLegend), PD-1 (clone 29F.1A12, BioLegend), CD44 (clone IM7, BioLegend), CD62L (clone MEL-14, BioLegend), IFN-γ (clone XMG1.2, BioLegend), TNF-α (clone MP6-XT22, BioLegend), Granzyme B (clone NGZB, eBioscience), CD11c (clone N418, BioLegend), I-A/I-E (clone M5/114.15.2, BioLegend), CD80 (clone 16-10A1, BioLegend), CD86 (clone GL-1, BioLegend), CD103 (clone 2E7, BioLegend), CD11b (M1/70, BioLegend), F4/80 (clone BM8, BioLegend), phospho-TBK1 (Ser172) (clone D52C2, Cell Signaling Tech.) or phospho-IRF-3 (Ser396) (clone D601M, Cell Signaling Tech.). For intracellular staining, Foxp3/Transcription Factor Staining Buffer Set (eBioscience, #00-5523-00) was used for fixation and permeabilization. For cytokine analysis, cells were stimulated with Leukocyte Activation Cocktail with protein transport inhibitor Brefeldin A (BD Biosciences, #550583) at 37° C. for 4 hours prior to the staining. Analysis of ϵ-HA2X (Ser139) was performed according to manufacturer's instructions. Briefly, ice-cold 70% ethanol (Decon) was added dropwise to the cell pellet while vortexing. Cells were then incubated at −20° C. for 1 hour and washed three times with cold staining buffer. For the staining, 5 μL p-HA2X antibody (clone 2F3, BioLegend) was added to approximately 1×10^6 cells in 100 μL staining buffer and incubated at 4° C. for 30 min. For Annexin V and 7-AAD staining, cells were detached with accutase (Sigma, #A6964). The detached cells (from culture medium and accutase treatment) were washed twice with cold PBS, and then incubated with 5 μL FITC Annexin V (BioLegend, #640906) and 10 μL 7-AAD (BioLegend, #420404) in 100 μL Annexin V binding buffer (BioLegend, #422201) at room temperature for 15 min. Flow cytometry was performed on an LSR Fortessa HTS analyzer (BD Biosciences). All data were analyzed using FlowJo software.
For in vitro co-culture of tumor cells with macrophages, 2×10^5 tumor cells per well were co-cultured with macrophages at a ratio of 1:1 (BP cells: mouse BMDMs) or 1:1.5 (MDA-MB-436 cells: THP-1 macrophages) in 6-well plates with indicated drug treatments or DMSO vehicle control for two days. […]

PE tumors = assay: Flow cytometry of immune cells in PE tumors and tumor-drainage lymph nodes; format: in vivo, mouse; settings: single-agent treatment; FIG. 30B
Procedure: To obtain single-cell suspension from tumor mass, tumors were excised, minced and dissociated in collagenase buffer (DMEM supplemented with 5% FBS, 10 mM HEPES [Gibco), 100 μg/mL penicillin-streptomycin, 20 μg/mL DNase I [StemCell] and 1× collagenase/hyaluronidase [StemCell]) at 37° C. for 45 min. Tumor-draining lymph nodes were isolated from tumor-bearing mice and were mashed through 70 μm strainer using plunger of a syringe to obtain single-cell suspension.
For FACS staining, tissue cells were first stained with LIVE/DEAD Fixable Aqua Dead Cell Stain (Thermo Fisher) for 30 min on ice, followed by blocking with anti-CD16/32 (BioLegend) for 20 minutes on ice. Afterwards, cells were incubated with antibodies targeting surface biomarkers in FACS buffer for 30 minutes on ice.

[2] = BMDMs with BP-CM or BP/OL-CM, DMXAA 0.05 mg/mL, 24 hours, FIG. 7A

With Cc1ccc2c(=O)c3cccc(CC(=O)O)c3oc2c1C [DMXAA, 5,6-dimethyl-xanthenone-4-acetic acid] the “CD86 expression of STING−/− TEMs” value ([1]; BMDMs from STING knockout mice, DMXAA 2 days, FIG. 7F) was “failed to increase”, the macrophage morphology ([1]; BMDMs incubated with BP-CM, DMXAA 0.05 mg/mL, 24 hours, FIG. 8B) was “changed these cells to a “fried egg” shape” and the “expression of genes of anti-tumorigenic M1 signature” value [1, 2] was “strongly stimulated”. For the same compound, the “expression of pro-tumorigenic M2 genes” value [1, 2] was “suppressed”, the “M1-like to M2-like ratio of TEMs” value ([1]; BP TEMs, DMXAA 0.05 mg/mL, two days, FIG. 7C) was “reversed TEMs to M1-like macrophages” and the “TEM STING pathway activation (p-TBK1+p-IRF3+)” value ([1]; BP TEMs, DMXAA 24 hours, FIG. 7D) was “significantly increased”.
For COc1cc2cc(C(=O)CCC(=O)O)sc2cc1OC [MSA-2], the “tumor immune microenvironment of large PE tumors” value (PE tumors) was “did not significantly affect”.
For O=C(c1cc(Cc2n[nH]c(=O)c3ccccc23)ccc1F)N1CCN(C(=O)C2CC2)CC1 [olaparib], the “gene expression of BMDMs (RNA-seq)” value ([1]; olaparib 5 μM, 24 hours, FIG. 3C) was “no significant direct effects” and the “macrophage polarization (M1-like / M2-like)” value ([1]; olaparib alone, two days, FIG. 3B) was “little effect”.
